Several values for one entry are separate records, joined by “and”; a condition that tells them apart may be missing. Equal values may be shown once.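 Growth conditions: 96-well plates. Treatment: test compound, 48 hours, 5 concentrations. Analysis: linear interpolation between bracketing concentrations; unreached endpoints set to highest concentration. Here, GI50 denotes the concentration required for 50% inhibition of growth. TGI: total growth inhibition.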

Among the test systems are U251 CNS; MDA-MB-231 breast; CCRF-CEM leukemia; OVCAR-3 ovarian; NCI-H226 lung; UACC-257 melanoma; SW-620 colon; KM12 colon; ACHN renal; HCT-15 colon.
Common to all, as to experiment: inhibition of tumour cell growth, NCI panel, 48 h

With `Oc1ccc(N=Nc2ccc(Br)cc2)c(O)c1`, the GI50 with U251 CNS was 3.59 µM; in the assay on MDA-MB-231 breast it was 3.47 µM; in the assay on CCRF-CEM leukemia, 1.91 µM; with OVCAR-3 ovarian it was 3.2 µM; in the assay with NCI-H226 lung it was 7.91 µM; in the assay with UACC-257 melanoma it was 7.52 µM. The GI50 in the assay on SW-620 colon is 3.64 µM; in the assay with KM12 colon, 3.31 µM; in the assay with ACHN renal, 5.44 µM; with HCT-15 colon it was 3.42 µM. Moreover, the TGI with U251 CNS came out at 24.8 µM; in the assay with MDA-MB-231 breast, 16.6 µM; in the assay with CCRF-CEM leukemia, 4.82 µM; in the assay with OVCAR-3 ovarian, 14.7 µM; with NCI-H226 lung it was 42.9 µM; in the assay with UACC-257 melanoma, 30.7 µM. The TGI with SW-620 colon is greater than 100 µM; in the assay on KM12 colon, 39.8 µM; with ACHN renal, 37.5 µM; in the assay with HCT-15 colon, 19.4 µM.
`CCN1/C(=C/C(C)=C/c2sc3ccc4ccccc4c3[n+]2CC)Sc2ccc3ccccc3c21`: the GI50 with U251 CNS is 0.108 µM; in the assay with MDA-MB-231 breast it was 0.271 µM; in the assay on OVCAR-3 ovarian it was 0.148 µM; with NCI-H226 lung, 0.225 µM; in the assay on UACC-257 melanoma it was 0.0115 µM; in the assay with SW-620 colon, 0.114 µM. The GI50 in the assay with KM12 colon was 0.136 µM; with ACHN renal, 0.147 µM; in the assay with HCT-15 colon, 0.219 µM. In addition, the TGI was 0.336 µM in the assay with U251 CNS; 1.04 µM in the assay with MDA-MB-231 breast; 0.317 µM in the assay with OVCAR-3 ovarian; 1.27 µM in the assay with NCI-H226 lung; 0.0916 µM in the assay with UACC-257 melanoma; 0.277 µM in the assay on SW-620 colon. For the same molecule, the TGI stood at 0.276 µM with KM12 colon, 0.614 µM in the assay on ACHN renal and 0.744 µM with HCT-15 colon.
As to `CCNCC(=O)Nc1ccc2c(c1)C(=O)c1ccc(NC(=O)CNCC)cc1C2=O`, the TGI was 5.3 µM with U251 CNS; 9.88 µM in the assay with MDA-MB-231 breast; greater than 100 µM in the assay with CCRF-CEM leukemia; 8.74 µM in the assay on OVCAR-3 ovarian; 20 µM in the assay on NCI-H226 lung; 18.6 µM with UACC-257 melanoma. The TGI in the assay on SW-620 colon was 12.8 µM; with KM12 colon it was greater than 100 µM; with ACHN renal, 9.15 µM; with HCT-15 colon it was 8.29 µM.
On to `Cn1cnc([N+](=O)[O-])c1S(=O)(=O)Oc1ccc(Cl)cc1`, for which the GI50 is 16.6 µM with U251 CNS; 2.8 µM with MDA-MB-231 breast; 2.33 µM in the assay with CCRF-CEM leukemia; 1.86 µM with OVCAR-3 ovarian; 18.6 µM with NCI-H226 lung; 3.59 µM with UACC-257 melanoma. Besides, the GI50 is 1.69 µM in the assay with SW-620 colon, 23 µM in the assay with KM12 colon, 1.8 µM in the assay with ACHN renal and 1.64 µM in the assay on HCT-15 colon. For the same molecule, the TGI in the assay with U251 CNS came out at 55.8 µM; with MDA-MB-231 breast it was 5.99 µM; in the assay with CCRF-CEM leukemia, 7.05 µM; in the assay on OVCAR-3 ovarian, 3.42 µM; in the assay on NCI-H226 lung, 58 µM; in the assay with UACC-257 melanoma, 16.6 µM. For the same molecule, the TGI in the assay on SW-620 colon is 3.29 µM; in the assay on KM12 colon, 91.4 µM; in the assay with ACHN renal, 3.28 µM; in the assay with HCT-15 colon, 3.47 µM.
Regarding `Clc1cc(Br)ccc1-c1ccc(CNCC2CCNCC2)o1`, the GI50 in the assay with U251 CNS is 2.17 µM; in the assay with MDA-MB-231 breast, 1.59 µM; in the assay with CCRF-CEM leukemia it was 1.58 µM; in the assay with OVCAR-3 ovarian, 1.75 µM; in the assay on NCI-H226 lung it was 2.3 µM; with UACC-257 melanoma, 1.85 µM. Further, the GI50 in the assay on SW-620 colon is 1.85 µM; in the assay on KM12 colon, 1.71 µM; with ACHN renal, 1.93 µM; with HCT-15 colon, 1.86 µM. For the same molecule, the TGI in the assay with U251 CNS worked out at 4.03 µM; in the assay with MDA-MB-231 breast, 3.42 µM; with CCRF-CEM leukemia, 3.54 µM; in the assay with OVCAR-3 ovarian it was 3.27 µM; in the assay on NCI-H226 lung, 6.25 µM; with UACC-257 melanoma it was 3.51 µM. Besides, the TGI was 3.72 µM in the assay on SW-620 colon, 3.22 µM with KM12 colon, 3.66 µM in the assay on ACHN renal and 4.29 µM with HCT-15 colon.
For the molecule `CC(=O)OCC1OC(SC2=N/C(=C\c3ccc(Br)s3)C(=O)N2c2ccccc2)C(OC(C)=O)C(OC(C)=O)C1OC(C)=O` (centres undefined), the GI50 with U251 CNS is 28 µM and 63.1 µM; in the assay with OVCAR-3 ovarian it was 91.1 µM and 20.7 µM; in the assay on NCI-H226 lung, 46.9 µM and 15.7 µM; with UACC-257 melanoma, > 100 µM and 42.5 µM; in the assay with KM12 colon it was > 100 µM and 44.3 µM. For the same molecule, the TGI with U251 CNS is greater than 100 µM; with MDA-MB-231 breast, greater than 100 µM; with OVCAR-3 ovarian it was > 100 µM and 85.2 µM; with NCI-H226 lung it was greater than 100 µM; in the assay on UACC-257 melanoma, greater than 100 µM; with SW-620 colon it was greater than 100 µM. For the same molecule, the TGI in the assay on KM12 colon, with ACHN renal and in the assay on HCT-15 colon was greater than 100 µM each time.
Turning to `COc1cc2c3c(n(CCCN=[N+]=[N-])c(=O)c2cc1OC)-c1ccccc1C3=O`, the GI50 was 1.61 µM in the assay with U251 CNS; greater than 100 µM with MDA-MB-231 breast; 3.37 µM with CCRF-CEM leukemia; 4.58 µM in the assay on OVCAR-3 ovarian; 12 µM in the assay on SW-620 colon; greater than 100 µM in the assay on KM12 colon. Moreover, the GI50 in the assay on ACHN renal was 1.21 µM; with HCT-15 colon, 27.4 µM. In addition, the TGI in the assay with U251 CNS was 24.5 µM; in the assay with MDA-MB-231 breast it was greater than 100 µM; with CCRF-CEM leukemia, greater than 100 µM; with OVCAR-3 ovarian, 24.5 µM; in the assay with SW-620 colon, greater than 100 µM; with KM12 colon it was greater than 100 µM. Moreover, the TGI with ACHN renal was 4.65 µM; with HCT-15 colon it was greater than 100 µM.
Turning to `CCCCCCCCCCCCCCCCn1cc[n+](C)c1`, the GI50 in the assay on U251 CNS is 0.356 µM; in the assay with MDA-MB-231 breast, 0.814 µM; with CCRF-CEM leukemia it was 0.139 µM; in the assay on OVCAR-3 ovarian, 0.286 µM; in the assay on SW-620 colon it was 0.468 µM; in the assay with KM12 colon, 0.264 µM. Further, the GI50 in the assay on ACHN renal was 0.613 µM; in the assay on HCT-15 colon, 0.989 µM. Besides, the TGI turned out to be 1.53 µM in the assay on U251 CNS; 2.23 µM with MDA-MB-231 breast; 0.512 µM in the assay with CCRF-CEM leukemia; 1.02 µM with OVCAR-3 ovarian; 1.78 µM with SW-620 colon; 0.756 µM in the assay on KM12 colon. Besides, the TGI in the assay on ACHN renal is 2.01 µM; in the assay on HCT-15 colon, 2.15 µM.
